Reference: patent US10064843B2, “Bis-amide derivative and use thereof” (University-Industry Cooperation Group of Kyung Hee …, priority 2013, dated 2018)

Assays:
CypA = molecular target: T1, CypA (Homo sapiens, UniProt P62937); experiment: PPIase activity of CypA, coupled chymotrypsin analysis; format: biochemical; conditions: FIG. 7a; read-out: IC50 PPIase activity of CypA
T1 construct: GST (N, cleaved yes); made in house; host or cells: E. coli (pGEX-KG)
Description: Example 5: Analysis of Peptidyl-Prolyl Cis-Trans Isomerase Activity
The PPIase activity of CypA was determined according to a known method using the coupled chymotrypsin analysis.
The cis-trans isomerization was measured by absorbance at 390 nm in a spectrophotometer. Additionally, the remaining percentage of enzyme activity was measured at different concentrations of the inhibitor to calculate the 50% inhibition concentration (IC50) to the PPIase activity. Data was optimized via graphs by exporting using Graph Pad Prism 5.

HCV replicon cells = experiment: Luciferase activity in HCV replicon cells; format: cell-based; conditions: Hepatitis C virus; 2 μM, 72 hours; FIG. 6; read-out: inhibition of luciferase activity of HCV
Description: Additionally, a series of compounds (WJCPA-1 to WJCPA-135) having the bis-amide structure as a parent structure in common, based on the inhibitory effect of WJCPA-126 against the PPIase activity, were synthesized and their activities were confirmed. Specifically, Huh7-rep cells were treated with each of the compounds at a concentration of 2 μM for 3 days, and the expression level of NS5A was confirmed by performing an immunoblot analysis according to a known method (FIG. 5). The 32 kinds of compounds confirmed to have excellent inhibitory effect especially against the NS5A expression from the immunoblot experiment were measured regarding their inhibitory effect against luciferase activity and the results are illustrated in FIG. 6. In the same manner as in western blot, the HCV replicon cells were treated with each of the compounds at a concentration of 2 μM and incubated for 72 hours, and the total cell lysate of the cultured cells were used for the analyses of western blot and the activity of luciferase.

T1 sequence (P62937 whole entry): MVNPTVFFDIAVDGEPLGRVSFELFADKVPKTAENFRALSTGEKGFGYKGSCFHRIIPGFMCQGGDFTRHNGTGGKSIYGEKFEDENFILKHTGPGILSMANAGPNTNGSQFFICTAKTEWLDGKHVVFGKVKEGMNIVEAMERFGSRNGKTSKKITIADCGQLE

Row | SMILES | IC50 (CypA) [nM] | inhibition at 2 µM (HCV replicon cells) [%]
1 | Cc1ccc(C)c(C(=O)N(c2ccc(C(C)C)cc2)C(C(=O)NC2CCCCC2)c2ccc(Cl)cc2)c1 (stereo not drawn) [WJCPA30, N-[(4-chloro-phenyl)-cyclohexylcarbamoyl-methyl]-N-(4-isopropyl-phenyl)-2,5-dimethyl-benzamide] | 10.6 | ≤ 80
2 | COc1ccc(CCC(=O)N(c2ccc(Br)cc2)C(C(=O)NC2CCCCC2)c2ccc([N+](=O)[O-])cc2)cc1 (stereo not drawn) [WJCPA133, N-(4-bromo-phenyl)-N-[cyclohexylcarbamoyl-(4-nitro-phenyl)-methyl]-3-(4-methoxy-phenyl)-propionamide] | 11.2 | –
